Results from patent US10087197B2, “Selective extraction of anions from solution” (Western Michigan University Research Foundation, priority 2012, dated 2018).

Experiments:
[1] = Liquid-liquid extraction of sulfate from aqueous nitrate solution at pH 14; conditions: 5 M nitrate (NaNO3), 0.044 M sulfate (Na2SO4), 1.25 M NaOH (pH 14); sulfate to nitrate ratio 1:114
Text: In experiments, an aqueous solution containing 5 M nitrate (NaNO3), 0.044 M sulfate (Na2SO4) and 1.25 M NaOH (pH 14), in which the sulfate to nitrate ratio is 1:114 was combined together with an organic phase containing the stoichiometrically (based on the amount of sulfate) required amounts of nano-jar components.

[2] = Preliminary selectivity study: self-assembly reaction with competing anions, sulfate determined gravimetrically as BaSO4; conditions: for encapsulation of sulfate into the product: 1:54 molar ratio of sulfate and nitrate (or perchlorate) anions, gravimetric as BaSO4 after digestion with 6M HCl; for selectivity for sulfate ion in the presence of halides: in the presence of fluoride, chloride and bromide ions; for preference for sulfate anion over nitrate or perchlorate anions: preliminary selectivity studies
Text: A self-assembly reaction using a 1:54 molar ratio of sulfate and nitrate (or perchlorate) anions led to the quantitative encapsulation of sulfate into the product, as determined gravimetrically by precipitation as BaSO4 after digestion with 6M HCl. […] The selectivity for sulfate over nitrate, along with the stability at high (basic) pH is especially relevant for the sulfate-extraction efforts during nuclear waste treatment by vitrification, because it allows liquid-liquid extraction. The methods described herein also offer the benefit of recyclability of the sulfate-encapsulating assemblies. The encapsulating host assemblies can be recovered by stirring the dry residue obtained after BaSO4 precipitation (containing CuCl2, Hpz and Et3NHCl) with excess Et3N in DMF. Following such mixing, the characteristic absorption at 599 nm indicates the re-assembly of the [cis-Cu^II(μ-OH)(μ-pz)]n rings.

[3] = Solubility of nano-jar aggregates and polymer in solvents; assay type: physicochemical; conditions: dark blue powder; for solubility in a wide variety of solvents: CCl4, CS2, aromatic hydrocarbons, ethers, ketones, esters, nitriles, amines, halogenated and nitro compounds, DMF and DMSO
Text: The unusually high solubility of (Bu4N)2[SO4^2−⊂{cis-Cu^II(μ-OH)(μ-pz)}6+12+10], and (Bu4N)2[SO4^2−⊂{cis-Cu^II(μ-OH)(μ-pz)}8+14+9]
Production of Host 1 and Host 2 via depolymerisation of [Cu^II(μ-OH)(μ-pz)]∞ includes the steps of combining aqueous solutions of CuSO4 and KOH/Hpz (1:2:1 molar ratio), which results in the formation of a blue-purple precipitate (Scheme 1). […] Elemental analysis results concur with the formula [Cu(OH)(pz)] (for C3H4CuN2O, M.W.=147.62, calculated/found: C, 24.4124.25%; H, 2.73/2.72%; N, 18.9818.40%). The structure of this intractable material likely consists of linear polymeric chains resulting from an all-trans arrangement of the pyrazole and OH moieties about the copper centers, similar to the ones found in [Cu^II(μ-pz)2]∞.
(Bu4N)HSO4 or (Bu4N)2SO4 can be added to a suspension of [Cu(μ-OH)(μ-pz)]∞ in THF or toluene, which leads to the immediate formation of a deep blue solution, and gradual dissolution of the solid. […] Hexane vapor diffusion to a toluene solution is then used to obtain dark blue single crystals in the form of blocks and thin plates.
In particular, one embodiment includes anion-encapsulating aggregates based on encapsulating host assemblies such as {cis-Cu^II(μ-OH)(μ-4-Mepz)}27 (“Host 13”), {cis-Cu^II(μ-OH)(μ-4-Mepz)}28(“Host 14”), {cis-Cu^II(μ-OH)(μ-4-Mepz)}29(“Host 15”), {cis-Cu^II(μ-OH)(μ-4-Mepz)}30(“Host 16”), {cis-Cu^II(μ-OH)(μ-4-Mepz)}31(“Host 17”), and {cis-Cu^II(μ-OH)(μ-4-Mepz)}32(“Host 18”). These alkyl ligand-bound pyrazole anion-encapsulating aggregates include 4-methylpyrazole (“4-Mepz”) and are somewhat soluble in pentane, hexane and cyclohexane. Hosts 13, 15, and 17 selectively encapsulate both carbonate and sulfate anions. Hosts 14 and 18 selectively encapsulate sulfate anions. Host 16 selectively encapsulates carbonate anions. These encapsulating host assemblies form anion-encapsulating aggregates which are capable of encapsulating anions present as contaminants in aqueous-hydrocarbon solvent mixtures, including without limitation in-process nuclear waste.
Another embodiment of an anion-encapsulating host containing a longer chain ligand-bound pyrazole is based on the formation of encapsulating host assemblies including 4-butylpyrazole. Anion-encapsulating aggregates incorporating 4-butylpyrazole are very soluble in pentane, hexane and cyclohexane, and are gradually less soluble in longer hydrocarbons (such as heptane, octane, decalin, and hexadecane). These anion-encapsulating aggregates can be used to encapsulate anions present as contaminants in aqueous-hydrocarbon solvent mixtures, such as those present in in-process nuclear waste.

[4] = Thermal stability of rings on recrystallization from boiling n-butanol; assay type: physicochemical; conditions: recrystallization from boiling n-butanol (b.p.=118° C.)
Procedure: (Bu4N)2[SO4^2−⊂{cis-Cu^II(μ-OH)(μ-pz)}28] can also be crystallized from chlorobenzene, 1,2-dichloroethane or n-butylamine by hexane vapor diffusion, and from CH2Cl2 by Et2O vapor diffusion. SO4^2−⊂{cis-Cu^II(μ-OH)(μ-pz)}31 can also be crystallized as the Bu4N-salt from chlorobenzene. Moreover, crystals of (Bu4N)2[SO4^2−⊂{cis-Cu^II(μ-OH)(μ-pz)}28] were also obtained by recrystallization from boiling n-butanol (b.p.=118° C.), indicating stability of the rings at that temperature.

Substance | extraction of sulfate anions from aqueous phase to organic phase [1] | encapsulation of sulfate into the product [2] | selectivity for sulfate ion in the presence of halides [2] | preference for sulfate anion over nitrate or perchlorate anions [2] | solubility in a wide variety of solvents [3] | solubility in alcohols [3] | solubility in aliphatic hydrocarbons and water [3] | stability of the rings at temperature [4]
{cis-Cu^II(μ-OH)(μ-pz)}8+14+9 [Host 2] | effectively and selectively extracted | quantitative | Partial selectivity | marked preference |  |  |  | 
(Bu4N)2[SO4^2−⊂{cis-Cu^II(μ-OH)(μ-pz)}8+14+9] |  |  |  |  | highly soluble | slightly soluble | insoluble | 
(Bu4N)2[SO4^2−⊂{cis-Cu^II(μ-OH)(μ-pz)}6+12+10] |  |  |  |  | highly soluble | slightly soluble | insoluble | stability
{cis-Cu^II(μ-OH)(μ-pz)}6+12+10 [Host 1] | effectively and selectively extracted | quantitative | Partial selectivity | marked preference |  |  |  | 
